Data from US6075121A, “Modified peptide and peptide libraries with protease resistance, derivatives thereof and methods of producing and screening such” (Chiron Corporation, priority 1995, dated 2000).
Residues, ends and D or L forms follow the SMILES beside them. *: point of attachment. Fmoc = O=C(OCC1c2ccccc2-c2ccccc21)*

Tests used:
[1] = target: T1, dihydrofolate reductase (DHFR) found in Pneumocystis carinii (Pneumocystis carinii, UniProt P16184); settings: stated without a test; cited from earlier work
T1 sequence (P16184 1-206): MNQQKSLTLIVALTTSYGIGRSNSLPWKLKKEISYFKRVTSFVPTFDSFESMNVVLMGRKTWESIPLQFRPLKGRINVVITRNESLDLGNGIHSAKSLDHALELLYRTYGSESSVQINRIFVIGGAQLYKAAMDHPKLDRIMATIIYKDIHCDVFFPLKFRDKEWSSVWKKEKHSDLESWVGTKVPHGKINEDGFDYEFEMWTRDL

trypsin [2] = target: T2, trypsin (Bos taurus, UniProt P00760); test: Proteolysis of peptoids and peptides by trypsin; format: in vitro ADME
T2 construct: gene PRSS1
T2 sequence (P00760 24-246): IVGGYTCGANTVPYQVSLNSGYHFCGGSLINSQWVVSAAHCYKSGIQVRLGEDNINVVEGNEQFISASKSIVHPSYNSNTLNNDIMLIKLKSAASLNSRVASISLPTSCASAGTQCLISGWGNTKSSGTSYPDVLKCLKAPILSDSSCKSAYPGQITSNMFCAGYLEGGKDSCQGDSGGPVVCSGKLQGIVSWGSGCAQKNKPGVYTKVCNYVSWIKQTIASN
Excerpt: (§1) Both compounds were purified to homogeneity by HPLC.

chymotrypsin [3] = target: chymotrypsin (Bos taurus, UniProt P00766); test: Proteolysis of peptoids and peptides by chymotrypsin; format: in vitro ADME
Excerpt: as §1

trypsin [4] = tested on: T3, trypsin; test: Proteolysis of peptoids and peptides by trypsin; format: in vitro ADME; settings: trypsin (isolated protease) in Tris buffer, trypsin, 37° C., pH 8.0, read-out: % Area at 280 nm Remaining of Parent Peak by RP-HPLC
T3 construct: gene PRSS1
Excerpt: as §1

chymotrypsin [5] = test: Proteolysis of peptoids and peptides by chymotrypsin; format: in vitro ADME; settings: chymotrypsin (isolated protease) in Tris buffer, chymotrypsin, 37° C., pH 8.0, read-out: % Area at 280 nm Remaining of Parent Peak by RP-HPLC
Excerpt: as §1

[6] = tested on: bacterial dihydrofolate reductases; settings: stated without a test; cited from earlier work
[7] = tested on: antiserum S259-8 (epitope KDFL); test: Antibody binding of peptides and peptoids on pins, serum S259-8; set-up: key: A `P` represents a peptide sequence which gave the highest 6-8 signals; a `*` represents a peptoid sequence which scored in the top 6-10; settings: serum S259-8, epitope KDFL; for antibody binding signal rank, peptide sequence: peptide on pins; for antibody binding signal rank, peptoid sequence: peptoid on pins
Method: (§2) Peptoids and peptides were prepared on the pins and tested under standard conditions. The assay is best interpreted qualitatively, and the chart below gives a summary of data from three antisera tested. They are representative for the twelve sera which gave signals with both the peptoids and peptides. A `P` represents a peptide sequence which gave the highest 6-8 signals. Likewise, a `*` represents a peptoid sequence which scored in the top 6-10. For the three sera tested, 33/120 sequences are represented which lends support to the premise that there is selective binding shown by the antibody.

[8] = tested on: antiserum S259-6 (epitope DFLEKI); test: Antibody binding of peptides and peptoids on pins, serum S259-6; set-up: key: A `P` represents a peptide sequence which gave the highest 6-8 signals; a `*` represents a peptoid sequence which scored in the top 6-10; settings: serum S259-6, epitope DFLEKI
Method: as §2

antibody binding signal rank, peptide sequence [7]	antibody binding signal rank, peptide sequence [8]	Compound	further results
–	–	COc1cc(Cc2cnc(N)nc2N)cc(OC)c1NC(=O)CCC(=O)O [2,4-diamino-5-[3,5-di-methoxy-4-(3-hydrocarboxy-1-oxopropylamino)benzyl]pyrimidine]	inhibitory activity on DHFR [1]: inhibitory activity specific for the enzyme dihydrofolate reductase (DHFR) found in Pneumocystis carinii
–	–	CC(C)C[C@H](NC(=O)OCC1c2ccccc2-c2ccccc21)C(=O)N[C@@H](CC(=O)O)C(=O)N[C@@H](Cc1ccccc1)C(=O)N[C@@H](CO)C(=O)N[C@@H](CCCCN)C(=O)NCC(=O)O [PEPTIDE, FMOC-LDFSKG-OH] (Fmoc-LDFSKG-OH)	number of places cleaved by trypsin (trypsin [2]): only one place; time to complete cleavage by trypsin (trypsin [2]; 37° C., pH 8.0): ≤ 5 min; number of chymotrypsin cleavage sites (chymotrypsin [3]): at least two cleavage sites; cleavage completed at the preferential chymotrypsin site (chymotrypsin [3]; after 10 minutes): ~ 60%; cleavage at the second chymotrypsin site (chymotrypsin [3]; after three hours): not completely cleaved
–	–	CC(C)CN(CC(=O)N(CC(=O)O)CC(=O)N(CC(=O)N(CCO)CC(=O)N(CCN)CC(=O)NCC(=O)O)Cc1ccccc1)C(=O)OCC1c2ccccc2-c2ccccc21 [PEPTOID, FMOC-L*D*F*S*K*G-OH]	change of substrate under proteolysis conditions (trypsin [2]; all reaction conditions (trypsin, chymotrypsin, control)): remained unchanged; remaining at 5 min, 0.48 mg/mL (trypsin [4]; 5 min): 100%; remaining at 10 min, 0.48 mg/mL (trypsin [4]; 10 min): 100%; remaining at 3 h, 0.48 mg/mL (trypsin [4]; 3 hours): 100%; remaining at 5 min, 0.48 mg/mL (chymotrypsin [5]; 5 min): 100%; remaining at 10 min, 0.48 mg/mL (chymotrypsin [5]; 10 min): 100%; remaining at 3 h, 0.48 mg/mL (chymotrypsin [5]; 3 hours): 100%
–	–	COc1cc(Cc2cnc(N)nc2N)cc(OC)c1OC [Trimethoprim]	inhibition of dihydrofolate reductases [6]: potent inhibitor
P	–	DFLKS	–
P	P	DFLSK	–
–	P	DKFSL	–
–	P	FSKLD	–
P	P	KDFLS	–
–	P	KFLDS	–
P	–	KLSFD	antibody binding signal rank, peptoid sequence [7]: *
P	–	KSDFL	–
–	P	LFKDS	–
–	P	LKFDS	–
P	–	LKSFD	antibody binding signal rank, peptoid sequence [7]: *
P	P	SDFLK	antibody binding signal rank, peptoid sequence [7]: *
P	–	SFLDK	–
P	–	SKDFL	–
